# Experimental data from patent US20070128217A1 (priority 2003, published 2007).
# What was measured:
# [1] = tested on: rabbit serum obtained by immunizing a rabbit with the SARS-CoV strain Frankfurt 1; type: binding; parameters: Binding of a rabbit serum to linear peptides / Binding of a rabbit serum to looped peptides / Rabbit serum linear peptides / Rabbit serum looped peptides / Binding of a rabbit serum to linear peptides of protein N of SARS-CoV Urbani (Rabbit serum linear peptides) / Binding of a rabbit serum to looped/cyclic peptides of protein N of SARS-CoV Urbani (Rabbit serum looped peptides): unit not given here
# [2] = tested on: control sera (pooled serum of ten healthy LUMC hospital workers; commercial negative donor pooled serum from the Dutch bloodbank); type: binding, human; parameters: Binding of Control serum LUMC to linear peptides / Binding of Control serum Blood-bank to linear peptides / Binding of Control serum LUMC to looped peptides / Binding of Control Serum Blood-Bank to Looped peptides / Binding of Control serum LUMC to linear peptides of the protein M of SARS-CoV Urbani / Binding of Control serum Blood-bank to linear peptides of the protein M of SARS-CoV Urbani / Binding of Control serum LUMC to looped peptides of the protein M of SARS-CoV Urbani / Binding of Control Serum Blood-Bank to Looped peptides of the protein M of SARS-CoV Urbani: unit not given here
# [3] = tested on: antibodies in sera from SARS patients (sera 1a, 1b, 2, 6, 37, 62, London, SARS-yellow, SARS-green); type: binding, human; parameters: Binding of serum 6 to linear peptides of protein X1 of SARS-CoV Urbani / Binding of serum 37 to linear peptides of protein X1 of SARS-CoV Urbani / Binding of serum 6 to looped/cyclic peptide (PEPSCAN-ELISA) / Binding of serum 37 to looped/cyclic peptide (PEPSCAN-ELISA) / Binding of serum 37 to looped/cyclic peptides of protein X1 of SARS-CoV Urbani / Binding of serum 6 to linear peptides of protein X2 / Binding of serum 37 to linear peptides of protein X2 / Binding of serum 37 to looped/cyclic peptides of protein X2 of SARS-CoV Urbani / Binding of serum 6 to linear peptides of protein M of SARS-CoV Urbani / Binding of serum 37 to linear peptides of protein M of SARS-CoV Urbani / Binding of serum 6 to looped/cyclic peptides of protein M of SARS-CoV Urbani / Binding of serum 37 to looped/cyclic peptides of protein M of SARS-CoV Urbani / Binding of serum 6 to linear peptides of protein X3 of SARS-CoV Urbani / Binding of serum 37 to linear peptides of protein X3 of SARS-CoV Urbani / Binding of serum 37 to looped/cyclic peptides of protein X3 of SARS-CoV Urbani / Binding of serum 6 to linear peptides of protein X4 of SARS-CoV Urbani / Binding of serum 37 to linear peptides of protein X4 of SARS-CoV Urbani / Binding of serum 37 to looped/cyclic peptides of protein X4 of SARS-CoV Urbani / Binding of serum 6 to linear peptides of protein X5 of SARS-CoV Urbani / Binding of serum 37 to linear peptides of protein X5 of SARS-CoV Urbani / Binding of serum 37 to looped/cyclic peptides of protein X5 of SARS-CoV Urbani / Binding of serum 6 to linear peptides of protein N of SARS-CoV Urbani / Binding of serum 37 to linear peptides of protein N of SARS-CoV Urbani / Binding of serum 6 to linear peptide (PEPSCAN-ELISA) / Binding of serum 1a to looped/cyclic peptides of protein N of SARS-CoV Urbani / Binding of serum 1b to looped/cyclic peptides of protein N of SARS-CoV Urbani / Binding of serum 2 to looped/cyclic peptides of protein N of SARS-CoV Urbani / Binding of serum 6 to looped/cyclic peptides of protein N of SARS-CoV Urbani / Binding of serum 37 to looped/cyclic peptides of protein N of SARS-CoV Urbani / Binding of serum 62 to looped/cyclic peptides of protein N of SARS-CoV Urbani / Binding of serum London to looped/cyclic peptides of protein N of SARS-CoV Urbani / Binding of serum SARS-green to looped/cyclic peptides of protein N of SARS-CoV Urbani: unit not given here
sequence,measurement,setting,value
LESTQITTDTGIENA,Binding of a rabbit serum to linear peptides,[1],0.1
same,Binding of a rabbit serum to looped peptides,[1],0.5
same,Binding of Control Serum Blood-Bank to Looped peptides,[2],0.4
same,Binding of Control serum Blood-bank to linear peptides,[2],0.3
same,Binding of Control serum LUMC to linear peptides,[2],0.4
same,Binding of Control serum LUMC to looped peptides,[2],0.4
same,Binding of serum 1a to linear peptides of protein X1 of SARS-CoV Urbani,[3],0.6
same,Binding of serum 1a to looped/cyclic peptides of protein X1 of SARS-CoV Urbani,[3],0.4
same,Binding of serum 1b to linear peptides of protein X1 of SARS-CoV Urbani,[3],0.5
same,Binding of serum 1b to looped/cyclic peptides of protein X1 of SARS-CoV Urbani,[3],0.3
same,Binding of serum 2 to linear peptides of protein X1 of SARS-CoV Urbani,[3],0.4
same,Binding of serum 2 to looped/cyclic peptides of protein X1 of SARS-CoV Urbani,[3],0.2
same,Binding of serum 6 to linear peptides of protein X1 of SARS-CoV Urbani,[3],0.4
same,Binding of serum 6 to looped/cyclic peptides of protein X1 of SARS-CoV Urbani,[3],0.2
same,Binding of serum 37 to linear peptides of protein X1 of SARS-CoV Urbani,[3],0.5
same,Binding of serum 37 to looped/cyclic peptides of protein X1 of SARS-CoV Urbani,[3],0.3
same,Binding of serum 62 to linear peptides of protein X1 of SARS-CoV Urbani,[3],0.4
same,Binding of serum 62 to looped/cyclic peptides of protein X1 of SARS-CoV Urbani,[3],0.4
same,Binding of serum London to linear peptides of protein X1 of SARS-CoV Urbani,[3],0.2
same,Binding of serum London to looped/cyclic peptides of protein X1 of SARS-CoV Urbani,[3],0.2
same,Binding of serum SARS-green to linear peptides of protein X1 of SARS-CoV Urbani,[3],0.1
same,Binding of serum SARS-green to looped/cyclic peptides of protein X1 of SARS-CoV Urbani,[3],0.2
same,Binding of serum SARS-yellow to linear peptides of protein X1 of SARS-CoV Urbani,[3],0.2
same,Binding of serum SARS-yellow to looped/cyclic peptides of protein X1 of SARS-CoV Urbani,[3],0.3
LFARTRSMWSFNPET,Rabbit serum linear peptides,[1],0.1
same,Rabbit serum looped peptides,[1],0.3
same,Binding of Control Serum Blood-Bank to Looped peptides of the protein M of SARS-CoV Urbani,[2],0.6
same,Binding of Control serum Blood-bank to linear peptides of the protein M of SARS-CoV Urbani,[2],0.7
same,Binding of Control serum LUMC to linear peptides of the protein M of SARS-CoV Urbani,[2],0.8
same,Binding of Control serum LUMC to looped peptides of the protein M of SARS-CoV Urbani,[2],0.6
same,Binding of serum 1a to linear peptides of protein M of SARS-CoV Urbani,[3],0.8
same,Binding of serum 1a to looped/cyclic peptides of protein M of SARS-CoV Urbani,[3],0.7
same,Binding of serum 1b to linear peptides of protein M of SARS-CoV Urbani,[3],0.7
same,Binding of serum 1b to looped/cyclic peptides of protein M of SARS-CoV Urbani,[3],0.5
same,Binding of serum 2 to linear peptides of protein M of SARS-CoV Urbani,[3],0.5
same,Binding of serum 2 to looped/cyclic peptides of protein M of SARS-CoV Urbani,[3],0.6
same,Binding of serum 6 to linear peptides of protein M of SARS-CoV Urbani,[3],0.6
same,Binding of serum 6 to looped/cyclic peptides of protein M of SARS-CoV Urbani,[3],0.5
same,Binding of serum 37 to linear peptides of protein M of SARS-CoV Urbani,[3],0.5
same,Binding of serum 37 to looped/cyclic peptides of protein M of SARS-CoV Urbani,[3],0.7
same,Binding of serum 62 to linear peptides of protein M of SARS-CoV Urbani,[3],0.5
same,Binding of serum 62 to looped/cyclic peptides of protein M of SARS-CoV Urbani,[3],0.6
same,Binding of serum London to linear peptides of protein M of SARS-CoV Urbani,[3],0.4
same,Binding of serum London to looped/cyclic peptides of protein M of SARS-CoV Urbani,[3],0.2
same,Binding of serum SARS-green to linear peptides of protein M of SARS-CoV Urbani,[3],0.5
same,Binding of serum SARS-green to looped/cyclic peptides of protein M of SARS-CoV Urbani,[3],0.3
same,Binding of serum SARS-yellow to linear peptides of protein M of SARS-CoV Urbani,[3],0.2
same,Binding of serum SARS-yellow to looped/cyclic peptides of protein M of SARS-CoV Urbani,[3],0.7
LFLAWIMLLQFAYSN,Rabbit serum linear peptides,[1],0.7
same,Rabbit serum looped peptides,[1],0.3
same,Binding of Control Serum Blood-Bank to Looped peptides of the protein M of SARS-CoV Urbani,[2],0.7
same,Binding of Control serum Blood-bank to linear peptides of the protein M of SARS-CoV Urbani,[2],0.5
same,Binding of Control serum LUMC to linear peptides of the protein M of SARS-CoV Urbani,[2],0.2
same,Binding of Control serum LUMC to looped peptides of the protein M of SARS-CoV Urbani,[2],0.6
same,Binding of serum 1a to linear peptides of protein M of SARS-CoV Urbani,[3],0.7
same,Binding of serum 1a to looped/cyclic peptides of protein M of SARS-CoV Urbani,[3],0.8
same,Binding of serum 1b to linear peptides of protein M of SARS-CoV Urbani,[3],0.5
same,Binding of serum 1b to looped/cyclic peptides of protein M of SARS-CoV Urbani,[3],0.6
same,Binding of serum 2 to linear peptides of protein M of SARS-CoV Urbani,[3],0.3
same,Binding of serum 2 to looped/cyclic peptides of protein M of SARS-CoV Urbani,[3],0.6
same,Binding of serum 6 to linear peptides of protein M of SARS-CoV Urbani,[3],0.3
same,Binding of serum 6 to looped/cyclic peptides of protein M of SARS-CoV Urbani,[3],0.7
same,Binding of serum 37 to linear peptides of protein M of SARS-CoV Urbani,[3],0.6
same,Binding of serum 37 to looped/cyclic peptides of protein M of SARS-CoV Urbani,[3],0.7
same,Binding of serum 62 to linear peptides of protein M of SARS-CoV Urbani,[3],0.7
same,Binding of serum 62 to looped/cyclic peptides of protein M of SARS-CoV Urbani,[3],0.7
same,Binding of serum London to linear peptides of protein M of SARS-CoV Urbani,[3],0.2
same,Binding of serum London to looped/cyclic peptides of protein M of SARS-CoV Urbani,[3],0.3
same,Binding of serum SARS-green to linear peptides of protein M of SARS-CoV Urbani,[3],0.2
same,Binding of serum SARS-green to looped/cyclic peptides of protein M of SARS-CoV Urbani,[3],0.3
same,Binding of serum SARS-yellow to linear peptides of protein M of SARS-CoV Urbani,[3],0.0
same,Binding of serum SARS-yellow to looped/cyclic peptides of protein M of SARS-CoV Urbani,[3],0.6
LFMRFFTLGSITAQP,Binding of a rabbit serum to linear peptides,[1],0.5
same,Binding of a rabbit serum to looped peptides,[1],0.4
same,Binding of Control Serum Blood-Bank to Looped peptides,[2],0.7
same,Binding of Control serum Blood-bank to linear peptides,[2],0.7
same,Binding of Control serum LUMC to linear peptides,[2],0.6
same,Binding of Control serum LUMC to looped peptides,[2],0.5
same,Binding of serum 1a to linear peptides of protein X1 of SARS-CoV Urbani,[3],0.8
same,Binding of serum 1a to looped/cyclic peptide (PEPSCAN-ELISA),[3],0.5
same,Binding of serum 1b to linear peptides of protein X1 of SARS-CoV Urbani,[3],0.7
same,Binding of serum 1b to looped/cyclic peptide (PEPSCAN-ELISA),[3],0.3
same,Binding of serum 2 to linear peptides of protein X1 of SARS-CoV Urbani,[3],0.6
same,Binding of serum 2 to looped/cyclic peptide (PEPSCAN-ELISA),[3],0.4
same,Binding of serum 6 to linear peptides of protein X1 of SARS-CoV Urbani,[3],0.5
same,Binding of serum 6 to looped/cyclic peptide (PEPSCAN-ELISA),[3],0.3
same,Binding of serum 37 to linear peptides of protein X1 of SARS-CoV Urbani,[3],0.6
same,Binding of serum 37 to looped/cyclic peptide (PEPSCAN-ELISA),[3],0.5
same,Binding of serum 62 to linear peptides of protein X1 of SARS-CoV Urbani,[3],0.6
same,Binding of serum 62 to looped/cyclic peptide (PEPSCAN-ELISA),[3],0.5
same,Binding of serum London to linear peptides of protein X1 of SARS-CoV Urbani,[3],0.3
same,Binding of serum London to looped/cyclic peptide (PEPSCAN-ELISA),[3],0.2
same,Binding of serum SARS-green to linear peptides of protein X1 of SARS-CoV Urbani,[3],0.2
same,Binding of serum SARS-green to looped/cyclic peptide (PEPSCAN-ELISA),[3],0.3
same,Binding of serum SARS-yellow to linear peptides of protein X1 of SARS-CoV Urbani,[3],0.6
same,Binding of serum SARS-yellow to looped/cyclic peptide (PEPSCAN-ELISA),[3],0.4
